From patent US20040255343A1, “Caspase-9 deficient animals and the use thereof” (priority 1998, published 2004)

Key:
Caspase-9 −/− thymocytes [1] = assay: Apoptosis assay using thymocytes (Annexin V / 7-AAD, FACS); type: cell-based, mice; settings: Caspase-9 −/− thymocytes vs wild type; 2 μM dexamethasone, 1 μM staurosporine or 1 μg/ml anti-mouse Fas antibody plus cycloheximide; 6 hr or 24 hr
Description: To investigate the role of Caspase-9 in apoptosis pathways in other systems, we used primary cultures of thymocytes. Although thymocytes from Caspase9 −/− animals developed normally with no differences in the number of thymocytes or in the ratio of surface markers such as CD4, CD8 or CD3 (data not shown), we challenged the thymocytes with several apoptotic stimuli: dexamethasone, staurosporine, and anti-Fas antibody
(§1) Thymocytes were isolated from wild type and Caspase9 −/− mice. One million cells were treated with 2 μM dexamethasone (Sigma), 1 μM staurosporine (Sigma), 1 μg/ml anti-mouse Fas antibody (PharMingen) plus […] cycloheximide (Sigma), or 10% FCS medium only for 6 hr or 24 hr. Samples were stained with Annexin V (Boehringer Mannheim) and 7-aminoactinomycin D (7-AAD) (Sigma) to label apoptotic cells for FACS Sort (Becton Dickinson).

Caspase-9 −/− thymocytes [2] = assay: DNA fragmentation assay (DNA laddering on agarose gel); type: cell-based, mice
Method: as §1
DNA was isolated using a DNA isolation kit (LeMax Biotech) and subjected to electrophoresis on a 2% agarose gel. Gels were stained by ethidium bromide and images were taken by a scanner.

With CN[C@@H]1C[C@H]2O[C@@](C)([C@@H]1OC)n1c3ccccc3c3c4c(c5c6ccccc6n2c5c31)C(=O)NC4 [staurosporine] the “thymocyte survival / induced cell death” value (Caspase-9 −/− thymocytes [1]) was “reduced survival which was comparable to the death seen in controls”, the DNA laddering (Caspase-9 −/− thymocytes [2]; Caspase-9 deficient thymocytes, up to 24 hours of treatment) was “DNA laddering was also eliminated” and the “DNA cleavage after long-term treatment” value (Caspase-9 −/− thymocytes [2]; Caspase-9 −/− thymocytes, 36 and 48 hours of continual treatment (data not shown)) was “did begin to cleave their DNA”.
